According to PMC3216861, “Improving L-arabinose utilization of pentose fermenting Saccharomyces cerevisiae cells by heterologous expression of L-arabinose transporting sugar transporters” (Biotechnology for Biofuels, 2011):

What was measured:
ScHxt10 = target: T1, ScHxt10 (Saccharomyces cerevisiae, UniProt P43581); assay: growth complementation of transporter-null L-arabinose-utilizing yeast; format: cell-based; settings: 20 g/L L-arabinose plates, 30°C, 10 days, strain TSY01; growth read-out only
T1 construct: gene HXT10; HXT10 under shortened HXT7 promoter on 2-micron plasmid pTHHXT10, expressed in hexose-transporterless strain TSY01
T1 sequence (P43581 1-546): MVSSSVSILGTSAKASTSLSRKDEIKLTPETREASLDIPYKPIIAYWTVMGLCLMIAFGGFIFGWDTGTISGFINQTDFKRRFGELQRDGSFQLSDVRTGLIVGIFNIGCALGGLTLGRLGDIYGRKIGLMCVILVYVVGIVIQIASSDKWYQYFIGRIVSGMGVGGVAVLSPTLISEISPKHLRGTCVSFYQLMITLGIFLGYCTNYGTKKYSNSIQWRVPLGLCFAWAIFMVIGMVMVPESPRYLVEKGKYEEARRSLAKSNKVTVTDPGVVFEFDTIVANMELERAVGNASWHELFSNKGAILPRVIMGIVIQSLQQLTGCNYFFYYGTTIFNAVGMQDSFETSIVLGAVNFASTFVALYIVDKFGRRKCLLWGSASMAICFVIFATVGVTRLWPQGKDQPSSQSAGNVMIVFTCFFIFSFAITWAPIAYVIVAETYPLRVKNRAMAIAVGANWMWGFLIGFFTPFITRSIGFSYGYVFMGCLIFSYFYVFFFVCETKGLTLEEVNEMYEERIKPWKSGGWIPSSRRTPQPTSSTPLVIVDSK

ScHxt9 = target: T2, ScHxt9 (Saccharomyces cerevisiae, UniProt P40885); assay: as above; format: cell-based; settings: 20 g/L L-arabinose plates, 30°C, 10 days, strain TSY01; growth read-out only
T2 construct: gene HXT9; HXT9 under shortened HXT7 promoter on 2-micron plasmid pTHHXT9, expressed in hexose-transporterless strain TSY01
T2 sequence (P40885 1-567): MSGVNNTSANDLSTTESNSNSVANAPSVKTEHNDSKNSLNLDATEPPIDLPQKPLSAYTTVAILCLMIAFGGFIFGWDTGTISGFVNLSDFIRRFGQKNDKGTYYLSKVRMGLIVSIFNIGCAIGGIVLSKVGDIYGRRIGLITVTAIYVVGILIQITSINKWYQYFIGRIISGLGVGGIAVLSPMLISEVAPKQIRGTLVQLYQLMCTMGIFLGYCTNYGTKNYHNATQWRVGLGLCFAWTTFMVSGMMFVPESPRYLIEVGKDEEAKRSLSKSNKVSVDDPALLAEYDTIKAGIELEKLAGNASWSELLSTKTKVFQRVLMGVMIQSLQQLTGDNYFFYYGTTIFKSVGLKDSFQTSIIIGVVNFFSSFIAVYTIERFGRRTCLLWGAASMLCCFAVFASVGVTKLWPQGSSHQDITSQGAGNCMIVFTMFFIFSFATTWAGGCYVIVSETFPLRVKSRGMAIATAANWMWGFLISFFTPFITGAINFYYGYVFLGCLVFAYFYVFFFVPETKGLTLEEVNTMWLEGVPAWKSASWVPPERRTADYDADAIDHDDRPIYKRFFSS

OC1OC[C@H](O)[C@H](O)[C@H]1O (stereo partly drawn) [L-arabinose]
growth complementation of transporter-null L-arabinose-utilizing yeast (ScHxt10): Transformants expressing ScGal2, ScHxt9 and ScHxt10 could grow on the L-arabinose medium | growth complementation of transporter-null L-arabinose-utilizing yeast (ScHxt9): Transformants expressing ScGal2, ScHxt9 and ScHxt10 could grow on the L-arabinose medium
